According to US20080112954A1, “Method for treating chronic pain” (Parker College of Chiropractic, priority 2006, published 2008):

Tests used:
naïve rats = assay: Thermal sensitivity of naïve rats after intrathecal EphB receptor activators; assay type: in vivo, rat; conditions: prior injection of 20 μg
[1] = tested on: synapses between C-fibers and DH neurons; assay: LTP of C-fiber evoked field potentials in spinal dorsal horn in vivo; set-up: species or system rat; conditions: for LTP produced by 4 high-frequency trains of nerve shock: naïve animals
Method: Under anesthesia, a cannula was inserted into the trachea to allow artificial ventilation and another cannula containing heparin (0.03%) saline was inserted into the left carotid artery to monitor the blood pressure. The rat was placed in a stereotaxic frame, then was paralyzed by an intravenous injection of pancuronium bromide (4 mg/kg) and artificially ventilated with air at a tidal volume of 15 ml/kg. Adequate anesthesia was confirmed intermittently during neuromuscular blockade in terms of the following two criteria: (1) the pupils were constricted; (2) the blood pressure remained stable during noxious stimulation. Core body temperature was monitored through a thermister probe inserted into the rectum and maintained at 37.5±0.5° C. by means of a feedback-controlled heating pad under the ventral surface of the abdomen. In each experiment phosphate-buffered saline (PBS) was intermittently administered via a jugular vein cannula to maintain hydroelectrolyte balance. A laminectomy was performed to expose the lumbar spinal cord. The dura mater was then removed the exposed cord was immediately covered with warm agar (2% in saline). After the agar hardened, a small hole was made above the recording site for application of drug or vehicle. At the end of each experiment, the animals were killed by an overdose of intravenous pentobarbital (200 mg/kg).
Long-term potentiation (LTP) tests were performed on naïve rats. The protocol for the electrophysiological recordings of C-fiber evoked field potentials was similar to that described previously (Liu and Sandkuhler, 1998). The recordings were made at depths of 200-500 μm from the surface of the spinal cord between L4-L5 with glass capillary microelectrodes (DC resistances 3-5 MΩ filled with 2 M NaCl). The sciatic nerve was stimulated by a bipolar platinum hook electrode. […] Examples of the C-fiber-evoked field potentials given in each figure were recorded before (a) and after (b) tetanic stimulation (indicated by the arrow therein) or ephrinB1-Fc. […]

C[C@]12N[C@H](Cc3ccccc31)c1ccccc12 [MK-801, dizocilpine]
thermal hypersensitivity induced by injection of ephrinB1-Fc or ephrinB2-Fc (naïve rats): prevented | LTP produced by 4 high-frequency trains of nerve shock ([1]; post-treatment): not interrupted | LTP induced by the combination of ephrinB1-Fc and 2 tetanic trains ([1]; pre-treatment, n=5): blocked | LTP produced by 4 high-frequency trains of nerve shock ([1]; topical pre-treatment): blocked
